Measurements reported in patent publication US11185539B2 (priority 2017, dated 2021).

How the values were obtained:
[1] = test system: cardiomyocyte cell line HL-1; test: Proliferation of cardiomyocyte cell line HL-1, BrdU-ELISA; assay type: cell-based; conditions: same concentrations as on HCFs, 24 h, DMSO control
Procedure: HCFs and HL-1 cells were treated with Bufalin, Gitoxigenin, Lycorine and Anisomycin for 24 h with the same concentrations as indicated in Example 1 and proliferation of HCFs and cardiomyocyte cell line HL-1 cells was measured by BrdU-ELISA, DMSO refers as a control (see FIG. 2B, 3B, 4B, 5B). The cell proliferation ELISA is a colorimetric alternative to quantitate cell proliferation based on the measurement of BrdU incorporation during DNA synthesis in proliferating cells. After its incorporation into DNA, BrdU is detected by immunoassay by using antibodies being highly specific for BrdU. First, HCFs and/or HL-1 cells are cultured together with various dilutions of test substances (e.g. mitogens, growth factors, cytokines and test compounds such as Bufalin, Gitoxigenin, Lycorine and Anisomycin as mentioned above etc.) in a 96-well in a final volume of 100 μl/well in a humified atmosphere of 37° C. Afterwards, 10 μl/well BrdU labeling solution is added to the cells being cultured in 100 μl/well (final concentration: 10 μM BrdU). Then, cells were re-incubated for additional 2 to 24 h at 37° C. Next, labeling solution is removed and 200 μl/well FixDenat is added to the cells and incubated for 30 min at 15 to 25° C. Then, 100 μl/well anti-BrdU-POD working solution is added and incubated for approximately 90 min, after FixDenat is removed. Next, antibody conjugate is removed and wells are washed with 200 μl-300 μl/well Washing solution (PBS, 1×). After the washing solution is removed, 100 μl/well Substrate solution is added and it is incubated again until color development is sufficient for photometric detection. Further, HCFs were treated with said compounds (Lycorine: 5 μM, Bufalin: 1 μM, Gitoxigenin: 1 μM and Anisomycin: 1 μM) for 24 h as indicated again and subjected to FACS analysis after Annexin-7AAD-staining (see FIG. 2C, 3C, 4C, 5C). After the treatment with said compounds, annexin-7AAD-staining starts with inducing apoptosis in HCFs by a desired method, known to the person skilled in the art, a negative control (w/o induction and staining) and a positive control (f. ex. 500 μM H2O2 or 3 μM Staurosporin) is also needed. Then, the medium with HCFs is transferred into a falcon, washed with PBS and trypsinized. Everything is centrifuged for 5 min at 300×g and then the supernatant is aspirated. The pellet is re-suspended in 200 μl Annexin Red/7AAD Working Solution (1:20, 5 μl Annexin Red/7AAD+195 μl 1× Assay Buffer) and transferred into an Easy Cap Eppendorf tube. After incubation of 15 min at 37° C., it is centrifuged at room temperature (RT) for 5 min at 300×g. […] Samples are now ready for acquisition on a flow cytometer (blue and red laser).

[2] = test system: C57BL/6 mice with angiotensin II-induced diastolic heart failure; test: Echocardiography in murine model of angiotensin II-induced cardiac fibrotic disease (two weeks); assay type: in vivo; conditions: i.p. every other day, Bufalin 0.5, Lycorine 4.5, Anisomycin 10, Gitoxigenin 0.01 mg/kg, day 14
Procedure: Diastolic heart failure (HF) was induced in C57BL/6 mice via implantation of angiotensin II filled minipumps. Male C57BL/6 mice 8-10 weeks old were used in the present invention being based on a C57BL/6N-background (Charles River, Germany).
For implantation of angiotension II filled minipumps, Angiotensin-II is applied by osmotic minipumps for two weeks (Alzet® [Modell 1001]). The recommended dose amounts for 1.5 or 3.0 mg/kg/per day. The minipumps are filled under sterile conditions with Angiotensin-II or with isotonic saline solution functioning as a control substance. Implantation takes place under intraperitoneal injection anaesthesia. […] Mice are then fixed on a pre-heated operating table and are provided with Bepanthen eye salve against drying out of the conjunctives. The operating field is located in the right caudal third of the back. It is shaved and desinfected with Braunol, afterwards it is coated with a 0.5% Lidocain-solution. After a period of one hour implantation can be started. The skin is cut through vertical to the back line, preferably the length is one centimeter. A pocket from the cutting line to cranial is subcutaneously formed. Herein, the minipumps are injected. Afterwards, the skin is then closed with a 5-0 Prolene string with interrupted sutures. Then, the closed wound is coated again with Braunol. For preventing hypothermia mice wake up in their cages, which are placed up to one-third on a terrarium-warming mat with regulated temperatures of 37°. Surgery amounts for 5 minutes/per animal.
Next, the natural compounds (Bufalin, Gitoxigenin, Lycorine, and Anisomycin) were injected intraperitoneally every other day during two consecutive weeks starting two days after the operation (see FIG. 6). DMSO was also injected into C57BL/6 mice with induced cardiac remodeling as a control. Cardiac function was assessed echocardiographically and fibrosis-development via collagen staining with picosirius-red in histological sections of the hearts (Example 4).
Diastolic HF was induced in C57BL/6 mice and the natural compounds were injected as indicated in Example 3. Fourteen days after the operation, cardiac function of the mice was assessed echocardiographically (n=9-15 per group) by treating the mice with said compounds (Bufalin: 0.5 mg/kg, Lycorine 4.5 mg/kg, Anisomycin: 10 mg/kg and Gitoxigenin: 0.01 mg/kg). A decrease of the Myocardial Performance Index (MPI) as well as a reduction of the isovolumetric relaxation time (IVRT) and an increase in E to A peak ratio (E/A) (the ratio of the early (E) to late (A) ventricular filling velocities as a marker of the function of the left ventricle of the heart) indicate improvement of both global (MPI) and diastolic (IVRT and E/A) function of the heart (see FIGS. 7 and 9).

[3] = test system: circular RNA CDR1as; test: CDR1as expression in HCFs, qRT-PCR; assay type: cell-based, human; conditions: Lycorine 5 μM, others 1 μM, 24 h, vs DMSO
Procedure: (§1) Expression levels of CDR1as are increased in primary HCFs upon treatment with Bufalin, Gitoxigenin, Lycorine, Anisomycin and Geldanamycin. HCFs were incubated for 24 h with Bufalin (1 μM), Gitoxigenin (1 μM,) Lycorine (5 μM), Anisomycin (1 μM) and Geldanamycin (1 μM) and upregulation of CDR1as (normalized to 18S rRNA) by the respective compound was validated via qRT-PCR (see FIG. 22).

[4] = test system: CDR1 mRNA; assay type: cell-based, human; conditions: Lycorine 5 μM, others 1 μM, 24 h, vs DMSO
Procedure: as §1, with “of CDR1 mRNA change independently of miR-671-5p or” for “of”, “CDR1as” for “CDR1as are increased”, “impact on CDR1 mRNA level” for “upregulation of CDR1as”, “GAPDH)” for “18S rRNA)”, “23).” for “22).”

C[C@]12CC[C@H](O)C[C@H]1CC[C@@H]1[C@@H]2CC[C@]2(C)[C@@H](C3=CC(=O)OC3)[C@@H](O)C[C@]12O [Gitoxigenin]
proliferation of the cardiomyocyte cell line HL-1 [1]: no impact | E to A peak ratio (E/A) [2]: increase | Myocardial Performance Index (MPI) [2]: decrease | isovolumetric relaxation time (IVRT) [2]: reduction | expression levels of CDR1as (normalized to 18S rRNA) [3]: increase | expression levels of CDR1 mRNA (normalized to GAPDH) [4]: decrease

C[C@]12CC[C@H](O)C[C@H]1CC[C@@H]1[C@@H]2CC[C@]2(C)[C@@H](c3ccc(=O)oc3)CC[C@]12O [Bufalin]
proliferation of the cardiomyocyte cell line HL-1 [1]: no impact | E to A peak ratio (E/A) [2]: increase | Myocardial Performance Index (MPI) [2]: decrease | isovolumetric relaxation time (IVRT) [2]: reduction | expression levels of CDR1as (normalized to 18S rRNA) [3]: increase | expression levels of CDR1 mRNA (normalized to GAPDH) [4]: decrease

O[C@H]1[C@H]2c3cc4c(cc3CN3CCC(=C[C@@H]1O)[C@H]23)OCO4 [Lycorine]
proliferation of the cardiomyocyte cell line HL-1 [1]: no impact | E to A peak ratio (E/A) [2]: increase | Myocardial Performance Index (MPI) [2]: decrease | isovolumetric relaxation time (IVRT) [2]: reduction | expression levels of CDR1as (normalized to 18S rRNA) [3]: increase | expression levels of CDR1 mRNA (normalized to GAPDH) [4]: decrease

COc1ccc(C[C@H]2NC[C@H](O)[C@H]2OC(C)=O)cc1 [Anisomycin]
proliferation of the cardiomyocyte cell line HL-1 [1]: no impact | E to A peak ratio (E/A) [2]: increase | Myocardial Performance Index (MPI) [2]: decrease | isovolumetric relaxation time (IVRT) [2]: reduction | expression levels of CDR1as (normalized to 18S rRNA) [3]: increase | expression levels of CDR1 mRNA (normalized to GAPDH) [4]: decrease
